US9446039B2, “Aminoheteroaryl compounds as MTH1 inhibitors” (CEMM—FORSCHUNGSZENTRUM FÜR MOLEKULARE MEDIZIN GMBH, priority 2012, dated 2016)

Columns and labels:
Format in all cases: binding
[1] = target: SW480 colon carcinoma cells lysate proteins (Homo sapiens, UniProt Q9HB71); details: PreyGene CACYBP
[2] = target: T1, SW480 colon carcinoma cells lysate proteins (Homo sapiens, UniProt Q7KZF4); details: PreyGene SND1
T1 sequence (Q7KZF4 1-910): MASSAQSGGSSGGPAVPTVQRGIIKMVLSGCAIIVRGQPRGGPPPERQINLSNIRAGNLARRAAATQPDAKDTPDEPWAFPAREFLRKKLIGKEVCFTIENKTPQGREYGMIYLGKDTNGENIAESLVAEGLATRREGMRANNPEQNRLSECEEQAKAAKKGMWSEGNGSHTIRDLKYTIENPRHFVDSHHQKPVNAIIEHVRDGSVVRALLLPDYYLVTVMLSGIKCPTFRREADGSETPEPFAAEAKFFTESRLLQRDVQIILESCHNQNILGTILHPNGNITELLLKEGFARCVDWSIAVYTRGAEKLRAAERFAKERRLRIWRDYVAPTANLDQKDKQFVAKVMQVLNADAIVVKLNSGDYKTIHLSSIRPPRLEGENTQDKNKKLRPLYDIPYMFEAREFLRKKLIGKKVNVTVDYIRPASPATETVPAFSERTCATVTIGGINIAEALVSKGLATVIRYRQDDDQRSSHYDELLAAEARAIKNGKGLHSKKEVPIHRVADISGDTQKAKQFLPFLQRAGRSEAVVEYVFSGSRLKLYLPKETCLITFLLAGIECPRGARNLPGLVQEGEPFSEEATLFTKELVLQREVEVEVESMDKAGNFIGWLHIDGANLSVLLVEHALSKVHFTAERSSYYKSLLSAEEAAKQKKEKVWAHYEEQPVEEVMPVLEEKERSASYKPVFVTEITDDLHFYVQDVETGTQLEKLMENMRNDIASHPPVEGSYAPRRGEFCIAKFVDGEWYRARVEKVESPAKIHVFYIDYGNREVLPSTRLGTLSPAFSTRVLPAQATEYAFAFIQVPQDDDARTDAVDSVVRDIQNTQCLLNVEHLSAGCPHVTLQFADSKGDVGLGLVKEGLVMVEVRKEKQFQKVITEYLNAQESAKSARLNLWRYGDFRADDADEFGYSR

[3] = target: SW480 colon carcinoma cells lysate proteins (Homo sapiens, UniProt P67809); details: PreyGene YBX1; SW480 cells
SW480 colon carcinoma cells lysate proteins (Homo sapiens, UniProt P67809), sequence (P67809 whole entry): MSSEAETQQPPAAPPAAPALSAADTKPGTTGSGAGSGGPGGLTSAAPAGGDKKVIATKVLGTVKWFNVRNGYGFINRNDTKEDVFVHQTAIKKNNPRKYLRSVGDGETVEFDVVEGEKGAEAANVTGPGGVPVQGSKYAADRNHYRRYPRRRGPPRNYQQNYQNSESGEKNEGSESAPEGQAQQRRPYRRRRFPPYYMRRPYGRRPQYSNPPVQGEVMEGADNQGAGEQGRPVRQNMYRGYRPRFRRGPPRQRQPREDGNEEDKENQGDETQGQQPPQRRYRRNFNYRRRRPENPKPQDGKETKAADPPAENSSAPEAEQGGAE

[4] = target: SW480 colon carcinoma cells lysate proteins (Homo sapiens, UniProt Q9NTK5); details: PreyGene OLA1; SW480 cells
SW480 colon carcinoma cells lysate proteins (Homo sapiens, UniProt Q9NTK5), sequence (Q9NTK5 whole entry): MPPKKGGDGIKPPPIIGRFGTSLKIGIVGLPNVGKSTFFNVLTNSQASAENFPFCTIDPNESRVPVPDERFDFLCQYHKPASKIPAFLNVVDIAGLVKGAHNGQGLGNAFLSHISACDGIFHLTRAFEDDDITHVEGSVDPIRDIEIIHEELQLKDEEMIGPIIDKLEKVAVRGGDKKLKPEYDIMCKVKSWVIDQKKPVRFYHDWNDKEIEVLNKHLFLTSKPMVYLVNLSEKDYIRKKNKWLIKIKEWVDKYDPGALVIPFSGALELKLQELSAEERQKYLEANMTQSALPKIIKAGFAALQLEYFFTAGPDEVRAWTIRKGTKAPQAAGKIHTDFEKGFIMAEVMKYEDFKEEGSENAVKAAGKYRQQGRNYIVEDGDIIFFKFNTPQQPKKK

[5] = target: SW480 colon carcinoma cells lysate proteins (Homo sapiens, UniProt Q9Y490); details: PreyGene TLN1
SW480 colon carcinoma cells lysate proteins (Homo sapiens, UniProt Q9Y490), sequence (Q9Y490 whole entry): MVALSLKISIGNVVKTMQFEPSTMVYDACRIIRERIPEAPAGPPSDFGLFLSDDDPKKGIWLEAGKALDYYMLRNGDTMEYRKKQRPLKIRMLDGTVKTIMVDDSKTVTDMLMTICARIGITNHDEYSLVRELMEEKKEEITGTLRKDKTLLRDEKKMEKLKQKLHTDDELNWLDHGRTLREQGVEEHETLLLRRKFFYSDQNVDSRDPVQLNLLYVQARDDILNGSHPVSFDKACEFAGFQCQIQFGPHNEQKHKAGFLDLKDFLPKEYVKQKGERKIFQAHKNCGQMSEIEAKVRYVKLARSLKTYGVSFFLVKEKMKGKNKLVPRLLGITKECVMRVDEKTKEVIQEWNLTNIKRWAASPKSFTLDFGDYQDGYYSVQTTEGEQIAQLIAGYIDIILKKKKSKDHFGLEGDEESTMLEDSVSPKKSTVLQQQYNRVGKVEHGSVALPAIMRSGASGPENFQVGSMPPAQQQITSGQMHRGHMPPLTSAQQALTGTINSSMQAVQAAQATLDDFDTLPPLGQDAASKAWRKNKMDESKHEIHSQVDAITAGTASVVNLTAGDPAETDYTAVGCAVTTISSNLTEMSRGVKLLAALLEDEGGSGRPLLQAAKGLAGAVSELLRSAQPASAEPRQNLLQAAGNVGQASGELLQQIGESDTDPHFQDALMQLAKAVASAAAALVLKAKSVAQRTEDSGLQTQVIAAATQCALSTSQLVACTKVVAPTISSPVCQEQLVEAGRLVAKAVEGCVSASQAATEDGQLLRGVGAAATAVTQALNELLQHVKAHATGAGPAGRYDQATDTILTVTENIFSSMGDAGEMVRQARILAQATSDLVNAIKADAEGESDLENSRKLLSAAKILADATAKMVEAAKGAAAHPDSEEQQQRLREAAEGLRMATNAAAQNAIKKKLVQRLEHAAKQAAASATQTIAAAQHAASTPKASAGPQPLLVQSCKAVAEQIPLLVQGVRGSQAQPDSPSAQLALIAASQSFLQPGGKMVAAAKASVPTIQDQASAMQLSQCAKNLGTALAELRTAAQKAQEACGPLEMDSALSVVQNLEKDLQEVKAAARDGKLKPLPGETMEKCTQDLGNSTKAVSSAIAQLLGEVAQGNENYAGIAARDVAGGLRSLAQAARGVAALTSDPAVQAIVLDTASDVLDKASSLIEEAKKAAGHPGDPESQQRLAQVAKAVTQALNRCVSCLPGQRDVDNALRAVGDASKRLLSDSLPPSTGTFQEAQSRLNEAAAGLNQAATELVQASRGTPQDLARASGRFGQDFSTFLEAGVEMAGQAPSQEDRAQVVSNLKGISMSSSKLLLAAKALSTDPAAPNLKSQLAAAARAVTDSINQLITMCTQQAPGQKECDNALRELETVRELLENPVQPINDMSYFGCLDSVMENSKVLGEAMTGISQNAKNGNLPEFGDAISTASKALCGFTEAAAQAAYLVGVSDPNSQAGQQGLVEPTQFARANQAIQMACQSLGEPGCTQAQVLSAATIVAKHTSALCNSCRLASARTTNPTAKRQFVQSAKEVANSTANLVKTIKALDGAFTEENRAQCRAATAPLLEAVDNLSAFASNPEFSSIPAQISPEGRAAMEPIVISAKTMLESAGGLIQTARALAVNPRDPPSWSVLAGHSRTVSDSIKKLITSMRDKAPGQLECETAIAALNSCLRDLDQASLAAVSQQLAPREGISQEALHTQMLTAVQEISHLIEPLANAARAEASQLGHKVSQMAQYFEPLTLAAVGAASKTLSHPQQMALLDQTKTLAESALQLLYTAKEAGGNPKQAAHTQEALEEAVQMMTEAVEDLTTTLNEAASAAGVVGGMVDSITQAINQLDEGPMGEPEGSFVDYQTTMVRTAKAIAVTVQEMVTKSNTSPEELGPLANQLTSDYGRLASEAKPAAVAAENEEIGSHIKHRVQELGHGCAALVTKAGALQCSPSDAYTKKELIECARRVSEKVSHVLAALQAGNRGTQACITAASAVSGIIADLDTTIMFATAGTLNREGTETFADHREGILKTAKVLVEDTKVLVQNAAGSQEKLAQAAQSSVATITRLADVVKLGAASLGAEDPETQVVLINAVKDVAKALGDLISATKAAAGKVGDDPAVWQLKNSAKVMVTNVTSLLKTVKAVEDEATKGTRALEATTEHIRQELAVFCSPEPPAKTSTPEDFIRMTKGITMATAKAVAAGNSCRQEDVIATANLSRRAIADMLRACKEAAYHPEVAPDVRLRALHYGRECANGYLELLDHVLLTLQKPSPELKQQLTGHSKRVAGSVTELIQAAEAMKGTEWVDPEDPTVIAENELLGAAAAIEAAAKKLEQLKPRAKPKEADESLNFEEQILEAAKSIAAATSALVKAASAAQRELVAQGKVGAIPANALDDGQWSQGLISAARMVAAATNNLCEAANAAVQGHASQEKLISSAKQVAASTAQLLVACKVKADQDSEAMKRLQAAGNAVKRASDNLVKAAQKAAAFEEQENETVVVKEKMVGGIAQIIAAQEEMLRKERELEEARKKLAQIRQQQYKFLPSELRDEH

[6] = target: SW480 colon carcinoma cells lysate proteins (Homo sapiens, UniProt P18669); details: PreyGene PGAM1
SW480 colon carcinoma cells lysate proteins (Homo sapiens, UniProt P18669), sequence (P18669 whole entry): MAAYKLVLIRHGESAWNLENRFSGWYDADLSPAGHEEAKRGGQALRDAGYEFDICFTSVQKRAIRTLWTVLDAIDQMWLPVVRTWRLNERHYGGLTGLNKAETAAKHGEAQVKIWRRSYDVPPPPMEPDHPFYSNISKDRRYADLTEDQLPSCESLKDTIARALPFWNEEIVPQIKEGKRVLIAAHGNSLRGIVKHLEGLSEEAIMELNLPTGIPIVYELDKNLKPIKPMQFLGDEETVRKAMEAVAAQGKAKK

[7] = target: SW480 colon carcinoma cells lysate proteins (Homo sapiens, UniProt P55263); details: PreyGene ADK
SW480 colon carcinoma cells lysate proteins (Homo sapiens, UniProt P55263), sequence (P55263 whole entry): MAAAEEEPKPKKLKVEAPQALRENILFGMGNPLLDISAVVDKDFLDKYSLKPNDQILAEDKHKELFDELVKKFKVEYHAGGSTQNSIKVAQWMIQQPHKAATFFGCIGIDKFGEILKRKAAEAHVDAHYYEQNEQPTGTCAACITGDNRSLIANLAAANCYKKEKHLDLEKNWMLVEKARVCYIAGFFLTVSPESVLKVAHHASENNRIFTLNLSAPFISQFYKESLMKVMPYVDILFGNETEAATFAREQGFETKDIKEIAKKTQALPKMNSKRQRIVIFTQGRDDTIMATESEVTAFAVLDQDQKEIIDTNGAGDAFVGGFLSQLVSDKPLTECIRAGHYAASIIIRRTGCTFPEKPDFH

[8] = target: SW480 colon carcinoma cells lysate proteins (Homo sapiens, UniProt P68363); details: PreyGene TUBA1B; SW480 cells
SW480 colon carcinoma cells lysate proteins (Homo sapiens, UniProt P68363), sequence (P68363 whole entry): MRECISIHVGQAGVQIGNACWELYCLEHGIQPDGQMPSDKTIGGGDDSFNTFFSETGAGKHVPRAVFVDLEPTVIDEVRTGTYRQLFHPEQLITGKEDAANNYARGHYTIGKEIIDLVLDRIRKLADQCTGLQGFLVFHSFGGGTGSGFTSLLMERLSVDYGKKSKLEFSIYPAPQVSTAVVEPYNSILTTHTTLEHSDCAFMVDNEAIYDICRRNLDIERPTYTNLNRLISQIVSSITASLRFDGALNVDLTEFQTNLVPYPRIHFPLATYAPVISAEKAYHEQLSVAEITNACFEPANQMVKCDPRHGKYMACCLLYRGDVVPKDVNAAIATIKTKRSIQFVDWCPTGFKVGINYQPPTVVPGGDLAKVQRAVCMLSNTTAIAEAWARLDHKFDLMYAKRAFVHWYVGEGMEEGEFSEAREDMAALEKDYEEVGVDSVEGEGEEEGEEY

[9] = target: T2, SW480 colon carcinoma cells lysate proteins (Homo sapiens, UniProt P04264); details: PreyGene KRT1
T2 sequence (P04264 1-644): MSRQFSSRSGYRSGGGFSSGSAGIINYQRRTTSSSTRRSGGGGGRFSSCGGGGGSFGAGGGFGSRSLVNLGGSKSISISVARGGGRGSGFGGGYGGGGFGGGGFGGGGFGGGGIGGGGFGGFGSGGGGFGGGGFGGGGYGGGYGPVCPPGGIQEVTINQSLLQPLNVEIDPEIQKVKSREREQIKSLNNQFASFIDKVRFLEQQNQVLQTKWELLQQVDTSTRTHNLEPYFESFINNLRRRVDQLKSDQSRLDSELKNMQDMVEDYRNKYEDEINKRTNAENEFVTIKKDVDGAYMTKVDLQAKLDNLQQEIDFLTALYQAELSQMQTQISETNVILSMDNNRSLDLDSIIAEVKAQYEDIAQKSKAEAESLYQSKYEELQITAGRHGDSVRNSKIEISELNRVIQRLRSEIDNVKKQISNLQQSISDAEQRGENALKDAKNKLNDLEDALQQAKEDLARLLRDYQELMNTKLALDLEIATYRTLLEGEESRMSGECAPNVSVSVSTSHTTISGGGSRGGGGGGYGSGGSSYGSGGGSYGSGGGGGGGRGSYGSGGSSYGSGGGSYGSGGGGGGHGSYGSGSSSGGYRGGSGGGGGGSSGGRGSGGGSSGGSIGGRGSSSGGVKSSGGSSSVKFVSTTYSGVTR

SW480 colon carcinoma cells lysate proteins (Homo sapiens, UniProt Q9HB71), sequence (Q9HB71 whole entry): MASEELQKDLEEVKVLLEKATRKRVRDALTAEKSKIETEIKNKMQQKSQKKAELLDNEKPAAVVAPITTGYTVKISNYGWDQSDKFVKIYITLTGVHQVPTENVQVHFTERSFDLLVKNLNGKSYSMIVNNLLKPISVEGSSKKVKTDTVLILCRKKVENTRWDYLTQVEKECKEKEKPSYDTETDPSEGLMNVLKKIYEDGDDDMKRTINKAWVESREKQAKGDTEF

## C[C@H](Oc1cc(-c2cnn(C3CCNCC3)c2)cnc1N)c1c(Cl)ccc(F)c1Cl [(5)-crizotinib]
[1]
  AvgP: 0.392
  SC.Exp. 1-1: 2
  SC.Exp. 1-2: 2
  SC.Exp. 2-1: 0
  SC.Exp. 2-2: 0
  Sum (SC.Exp.): 4
[2]
  AvgP: 0.3957
  SC.Exp. 1-1: 3
  SC.Exp. 1-2: 5
  SC.Exp. 2-1: 0
  SC.Exp. 2-2: 0
  Sum (SC.Exp.): 8
[3]
  AvgP: 0
  SC.Exp. 1-1: 2
  SC.Exp. 1-2: 2
  SC.Exp. 2-1: 2
  SC.Exp. 2-2: 2
  SC.Exp. Sum: 8
[4]
  AvgP: 0
  SC.Exp. 1-1: 1
  SC.Exp. 1-2: 1
  SC.Exp. 2-1: 0
  SC.Exp. 2-2: 0
  SC.Exp. Sum: 2
[5]
  AvgP: 0.4939
  SC.Exp. 1-1: 7
  SC.Exp. 1-2: 7
  SC.Exp. 2-1: 0
  SC.Exp. 2-2: 0
  Sum (SC.Exp.): 14
[6]
  AvgP: 0.4721
  SC.Exp. 1-1: 6
  SC.Exp. 1-2: 6
  SC.Exp. 2-1: 0
  SC.Exp. 2-2: 0
  Sum (SC.Exp.): 12
[7]
  AvgP: 0.4613
  SC.Exp. 1-1: 4
  SC.Exp. 1-2: 3
  SC.Exp. 2-1: 0
  SC.Exp. 2-2: 0
  Sum (SC.Exp.): 7
[8]
  AvgP: 0
  SC.Exp. 1-1: 1
  SC.Exp. 1-2: 1
  SC.Exp. 2-1: 0
  SC.Exp. 2-2: 0
  SC.Exp. Sum: 2
[9]
  AvgP: 0.3569
  SC.Exp. 1-1: 26
  SC.Exp. 1-2: 24
  SC.Exp. 2-1: 5
  SC.Exp. 2-2: 3
  Sum (SC.Exp.): 58
